Laboratory results as given in patent publication US5817816A (Meiji Seika Kaisha, Ltd., priority 1997, dated 1998).

These compounds were tested against T1, progesterone receptor (Sus scrofa, UniProt D0EWS6) (assay: Progesterone receptor binding inhibition ([3H]-progesterone, hog uterus cytosol)). Settings: [3H]-progesterone ligand, 60 min at 4° C.
T1 construct: from tissue; host or cells: hog uterus, 100,000×g supernatant (cytosol)
T1 sequence (D0EWS6 1-934): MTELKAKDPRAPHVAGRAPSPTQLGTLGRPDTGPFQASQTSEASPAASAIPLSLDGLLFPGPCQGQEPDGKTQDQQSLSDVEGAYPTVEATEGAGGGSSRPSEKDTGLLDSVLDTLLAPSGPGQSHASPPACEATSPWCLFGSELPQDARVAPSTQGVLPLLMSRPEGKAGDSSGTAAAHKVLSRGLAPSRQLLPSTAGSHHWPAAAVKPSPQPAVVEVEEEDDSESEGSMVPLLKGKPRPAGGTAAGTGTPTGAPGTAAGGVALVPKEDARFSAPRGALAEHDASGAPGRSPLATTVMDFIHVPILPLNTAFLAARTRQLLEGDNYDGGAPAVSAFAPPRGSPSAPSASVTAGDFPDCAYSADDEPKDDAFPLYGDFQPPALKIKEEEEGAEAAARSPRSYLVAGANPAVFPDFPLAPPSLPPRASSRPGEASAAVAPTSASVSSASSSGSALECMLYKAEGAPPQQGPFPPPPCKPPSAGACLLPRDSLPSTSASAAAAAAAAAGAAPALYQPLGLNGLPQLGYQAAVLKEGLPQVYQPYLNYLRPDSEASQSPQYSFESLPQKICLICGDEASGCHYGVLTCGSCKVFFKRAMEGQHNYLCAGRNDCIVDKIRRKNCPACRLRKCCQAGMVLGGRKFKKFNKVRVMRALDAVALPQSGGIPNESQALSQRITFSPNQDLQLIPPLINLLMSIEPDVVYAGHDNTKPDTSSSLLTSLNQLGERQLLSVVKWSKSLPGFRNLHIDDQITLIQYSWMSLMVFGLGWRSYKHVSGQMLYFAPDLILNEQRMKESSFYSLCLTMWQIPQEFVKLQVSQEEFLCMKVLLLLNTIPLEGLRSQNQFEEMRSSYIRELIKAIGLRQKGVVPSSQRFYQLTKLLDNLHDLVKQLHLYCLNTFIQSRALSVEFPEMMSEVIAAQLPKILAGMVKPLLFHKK
Parameters: species or system hogs
Description: That is, uteri taken from hogs were disrupted in 5 mM phosphate buffer by means of Polytron homogenizer, and this solution was centrifuged (100,000×g, 30 min) to separate the supernatant, thereby preparing a cytosol containing progesterone receptor. A given concentration of a test drug solution (10 μl) was added to a solution composed of 50 μl of the cytosol obtained Just above (2-3 mg protein/ml) and 40 μl of a solution of [^3 H]-progesterone as a ligand (3.84 TBq/mM, 18.5 kBq/ml), and they were incubated in a test tube for 60 min at 4° C. to effect a reaction. Then, 100 μl of a 0.5% activated carbon solution was added to the reaction solution, and the mixture was allowed to stand for 10 min and then centrifuged (2,000×g, 10 min). The radioactivity of the supernatant was measured with a liquid scintillation counter.
Separately, the radioactivity was measured in the same manner as described above, except that no test drug was added. Further, the radioactivity was measured in the same manner as described above, except that 10 μl of Medroxyprogesterone Acetate (MPA) (10 μg/ml) was added instead of the test drug. The radioactivity with no test drug added was defined as the amount of total binding of [^3 H]-progesterone to the cytosol, and the radioactivity with MPA added was defined as the amount of non-specific binding. […] [formula]

Row | Compound | IC50
1 | COC(=O)C(C)=C1C[C@@]2(C)C(=CC1=O)C=C[C@H](OC(C)=O)[C@@H]2C [Example 14a, 3β-Acetoxy-8-oxoeremophila-1(2),7(11),9(10)-trien-12-oic acid methyl ester] | 600 nM
2 | CC(=O)O[C@H]1CC(Sc2ccccc2)=C2C=C3OC(=O)C(C)=C3C[C@]2(C)[C@H]1C [Example 21a, 3β-Acetoxy-1-phenylthioeremophila-1(10),7(11),8(9)-trien-12,8-olide] | 700 nM
3 | CC(=O)O[C@H]1C=CC2=C[C@H]3OC(=O)C(C)=C3C[C@]2(C)[C@H]1C [Example 15, 3β-Acetoxyeremophila-1(2),7(11),9(10)-trien-12,8β-olide] | < 100 nM
4 | CCOC1=C2C=C3OC(=O)C(C)=C3C[C@]2(C)[C@@H](C)[C@@H](OC(C)=O)C1 [Example 21b, 3β-Acetoxy-1-ethoxyeremophila-1(10),7(11),8(9)-trien-12,8-olide] | 279 nM
5 | CC(=O)O[C@H]1CC=C2C=C3OC(=O)C(C)=C3C[C@]2(C)[C@H]1C [Example 7b, 3β-Acetoxyeremophila-1(10),7(11),8(9)-trien-12,8-olide] | < 100 nM
6 | CC1=C2C[C@@]3(C)C(=CC=C[C@@H]3C)C=C2OC1=O [Example 16, Eremophila-1(10),2(3),7(11),8(9)-tetraen-12,8-olide] | 400 nM
7 | CC(=O)O[C@H]1CC(Cl)=C2C=C3OC(=O)C(C)=C3C[C@]2(C)[C@H]1C [Example 7a, 3β-Acetoxy-1-chloroeremophila-1(10),7(11),8(9)-trien-12,8-olide] | < 100 nM
